Measured values reported in patent US20240307545A1, “CONJUGATE OF SAPONIN, OLIGONUCLEOTIDE AND GALNAC” (priority 2021, published 2024).
pIC50: −log10 of the molar value. Like-named read-outs stand apart in the source and are kept apart here. [BNANC] = BNA^NC bridged nucleic acid nucleotide; {ThiolC6} = thiol C6 linker; d = 2'-deoxy (DNA)

Tests used:
[1] = Endosomal escape enhancing activity of saponin; details: compared with SO1861
apoB [2] = test: apoB gene silencing in Huh7 cells (qPCR); type: cell-based, human; details: hepatocytes with very low ASGPR1 expression (Huh7)
Description: Primary hepatocytes which highly express ASGPR1 (ASGPR1^high) and Huh7 hepatocyte cell line (low ASGPR1 expression) were treated with a concentration range of trivalent-GalNAc-ApoBBNA (TrivalentGalNAc-ApoBBNA), either in absence or presence of 300 nM trivalent-GalNAc-SO1861 (TrivalentGalNAc-SPT001) (FIGS. 20A and B).
In addition, the primary hepatocytes and the liver cells of cell line Huh7 were contacted with a concentration series of a saponin-oligonucleotide-ASGPR ligand conjugate, i.e. trivalent GalNAc conjugated with both SO1861 (DAR is 4, in a dendron with four SO1861 molecules) and ApoB BNA (SEQ ID NO: 2) ((GalNAc)3-dSPT4-ApoB (FIG. 20E), or TrivalentGalNAc-ApoBBNA-dendron(SO1861)4), and apoB mRNA expression was assessed (FIGS. 20A and B).
ApoB gene silencing in HepG2 (ASGPR1+) cells or Huh7 (ASGPR1^+/−) was determined.
RNA from cells was isolated and analysed according to standard protocols (Biorad). qPCR primers that were used are indicated in Table A2.
RNA from cells was isolated using TRI Reagent® Solution (Thermo Scientific) according to the manufacturer's instruction. Conversion into cDNA was performed using iScript™ cDNA Synthesis Kit (BioRad) using standard protocols. […]

apoB [3] = test: apoB mRNA expression in primary human hepatocytes (qPCR); type: cell-based; details: for pIC50: primary human hepatocytes, read-out: IC50 apoB RNA levels
Description: (§1) Cryopreserved primary human hepatocytes (Cytes Biotechnologies S.L., Spain) were thawed in hepatocyte thawing media (Cytes Biotechnologies S.L., Spain). […] Cells were pre-cultured for 4-6 hrs at 37° C. allowing for cell attachment to cell culture plates before the start of treatment. Plating medium was replaced by 315 μl or 108 μl maintenance media (Cytes Biotechnologies S.L., Spain), after which conjugates were added from a 10× concentrated stock solution in PBS. Plates were incubated for 72 hr at 37° C. being harvested for gene expression and cell viability analysis.
as §1

apoB [4] = test: ApoB expression analysis in liver tissue of C57BL/6J mice (qRT-PCR); type: in vivo; details: for reduction of apoB RNA levels (gene expression) in liver compared to vehicle / reduction of apoB expression in liver compared to vehicle: Study A; for reduction of apoB RNA levels (gene expression) in liver compared to vehicle: 24 hrs
Description: (§2) • i. Dose administration and in-life phase. Per group, 8 C57BL/6J male mice for treatment groups (in Study A, 14 mice in vehicle control group), approximately 6-7 weeks at arrival and 8-9 weeks at dosing, were dosed. The compounds, formulated in PBS or PBS alone (vehicle) according to Table A5 and Table A6, were dosed at 5 ml/kg in the tail vain (intravenously, i.v.), with dose volumes corresponding to the individual bodyweights. Where applicable, trivalent (GalNAc)3-SO1861 (EMCH) was co-administered at 5 ml/kg in the tail vain (i.v.) right after the trivalent GalNAc-ApoB conjugate. Animals were weighed weekly and clinical observations were performed 2-3 times daily within the first 48 hrs, and at least once daily thereafter until study end. • ii. Sampling of serum, liver, and kidney tissue. […] At the relevant inter-study post-dose timepoints, 3 animals per timepoint per treatment group (6 animals in the vehicle control group in Study A) were sacrificed to collect terminal bleeds and collect relevant organs, such as liver and kidney tissues for further analyses. at end of study, the remaining 2 animals (4 in the control group in Study A) per group were sacrificed. One half of the liver and one kidney was frozen and used for tissue RNA analysis.
The mRNA was isolated from frozen liver tissue using TRIzol® Reagent (Thermo Scientific) according to the manufacturer's instruction. Conversion into cDNA was performed using iScript™ cDNA Synthesis Kit (BioRad). ApoB expression levels and levels of specific liver housekeeping genes were determined using quantitative real-time PCR assays (qRT-PCR) using iTaq™ Universal SYBR® Green Supermix (BioRad) and the Light Cycler 480 (Roche Diagnostics, Rotkreuz, Switzerland) with specific DNA primers, listed in Table A4 (Study A) and Table A7 (Study B), respectively. Analysis was done by the ΔCt method to determine apoB expression relative to 2 liver-specific housekeeping control mRNAs. Each analysis reaction was performed in triplicate.

LDL-cholesterol = test: Serum LDL-cholesterol (LDL-C) analysis in C57BL/6J mice; type: in vivo
Description: as §2
LDL-cholesterol was measured in mouse serum, using an LDL-cholesterol specific two-step AU480 assay kit, respectively, from Beckman Coulter, with a photometric measurement according to the manufacturer's instructions.

[5] = In vivo tolerability (clinical observations, body weight) in C57BL/6J mice; details: Study A; doses and regimens of Table A5, i.v.
Description: as §2

## CC(=O)OC1C(C)OC(OC2C(C)OC(OC(=O)[C@]34CCC(C)(C)CC3C3=CCC5[C@@]6(C)CC[C@H](OC7OC(C(=O)O)C(O)C(OC8OCC(O)C(O)C8O)C7OC7OC(CO)C(O)C(O)C7O)[C@@](C)(C=O)C6CC[C@@]5(C)[C@]3(C)C[C@H]4O)C(OC3OC(C)C(OC4OCC(O)C(OC5OCC(O)C(O)C5O)C4O)C(O)C3O)C2O)C(O)C1OC1OCC(O)C(O)C1O (some centres unmarked) [SO1832]
[1]
  endosomal escape enhancing activity towards an oligonucleotide (or protein toxin) in the endosome: about equally active as SO1861

## (GalNAc)3-dSPT4-ApoB: trivalent GalNAc conjugated with a dendron with four SO1861 moieties and ApoB BNA (SEQ ID NO: 2) via trifunctional linker (GCCTCAGTCTGCTTCGCACC; BNA oligo conjugated to trivalent GalNAc and dendron of four SO1861 saponins, further chemistry not given here)
apoB [2]; low nM, conjugate alone
  response: apoB mRNA silencing: not responsive
apoB [3]; primary hepatocytes, concentration series
  apoB gene (mRNA) silencing potency, factor higher than the GalNAc-ApoB BNA conjugate lacking covalently linked saponin: ~100

## ApoB#02 BNA: BNA^NC antisense oligonucleotide 5′-GCattggtatTCA-3′ [SEQ ID NO: 12], fully phosphorothioated, 5′-Thiol C6 linker (GCATTGGTATTCA; sugars from the 5' end [BNANC]2 d8 [BNANC]3, all phosphorothioate, 5' {ThiolC6}, methylation of C not given here)
apoB [3]; relative ApoB#02 BNA concentration, without transfection agent
  pIC50: 6.40
apoB [3]; transfection with RNAi-MAX
  pIC50: 8.10
apoB [4]; 0.1 mg/kg i.v.
  reduction of apoB RNA levels (gene expression) in liver compared to vehicle: not noticeably reduced
apoB [4]; 1 mg/kg i.v.
  reduction of apoB RNA levels (gene expression) in liver compared to vehicle: ~15%
apoB [4]; 2 mg/kg i.v.
  reduction of apoB RNA levels (gene expression) in liver compared to vehicle: ~21%
apoB [4]; 2 mg/kg, 72 hrs
  reduction of apoB expression in liver compared to vehicle: 39%
apoB [4]; 2 mg/kg, 336 hrs
  reduction of apoB expression in liver compared to vehicle: 30%
apoB [4]; Study B, 2 mg/kg, 72 hrs
  apoB RNA levels (gene expression) in liver, % of vehicle control: 53%
LDL-cholesterol; Study A, 2 mg/kg, 72 hrs
  reduction of serum LDL-C compared to vehicle: ~50%
LDL-cholesterol; Study A, 2 mg/kg, 336 hrs
  reduction of serum LDL-C compared to vehicle: ~40%
LDL-cholesterol; Study A, 0.1, 1, or 2 mg/kg, 24 hrs
  serum LDL-C levels compared to vehicle (in words): not noticeably reduced
LDL-cholesterol; Study B, 2 mg/kg, 72 hrs post-dose
  serum LDL-C level: 2 mg/dL
[5]
  tolerability (adverse findings, clinical observations): well tolerated

## TrivalentGalNAc-ApoBBNA: conjugate of trivalent GalNAc and the ApoB antisense BNA oligonucleotide ApoBBNA (SEQ ID NO: 2); L or S linker not stated (GCCTCAGTCTGCTTCGCACC; BNA oligonucleotide conjugated to trivalent GalNAc, pattern not explicitly stated, further chemistry not given here)
apoB [2]; low nM + trivalentGalNAc-SPT001
  response: apoB mRNA silencing: not responsive
